Assay results reported in US20240148889A1, “STABILIZED TRIOXACARCIN ANTIBODY DRUG CONJUGATES AND USES THEREOF” (President and Fellows of Harvard College, priority 2020, published 2024).
“Also recorded” adds a separate entry of the source.

Columns and labels:
[1] = Liberation of bromohydrin by immolative spacer cyclization in buffer; format: physicochemical
Excerpt: In order to prevent premature reversion to the epoxide, a system in which the trioxacarcin prodrug would be linked through the tertiary alcohol of the halohydrin was envisioned. Therefore, epoxide formation could only occur once the payload had been released from the antibody upon delivery to the cellular target. Despite recent advances in the field, technology for linkage through alcohol functional groups is limited. Synthesis of benzyl ether, ester, carbonate, carbamate, diphosphate, and silyl linkers at the tertiary alcohol of 3 (bromohydrin) through previously reported methods all failed. Indeed, the electron withdrawing substituents surrounding the halohydrin alcohol (two P-acetals, a y-acetal and a bromide) coupled with the steric encumbrance they impose prevented reaction of this alcohol with nearly all electrophiles evaluated. […] It was believed that this diamine spacer would release free bromohydrin after peptidase cleavage of the linker. Simultaneous Boc deprotection of both the phenol and amine with trifluoroacetic acid (TFA) provided the TFA salt of the amine 9 after concentration, which was evaluated immediately for liberation of bromohydrin 3. […] Modifications of the diamine spacer unit to increase the rate of cyclization were unsuccessful. […]

[2] = Compound Stability Assay (buffer, 37° C., LC-MS); format: physicochemical
Method: Compound Stability Assay: In a 1.5 mL screw-top conical plastic vial, the desired compound as a solution in DMSO (5 mM, 6 μL, 30 nmol) was mixed with a solution of N-acetylcysteine in DMSO (10 mM, 6 μL, […], 2 equiv) to quench the maleimide. The mixture was diluted with either pH 5.0 sodium acetate or pH 7.4 phosphate buffer containing 8 mM N-acetylcysteine (282 μL). 1-naphthalene acetic acid in DMSO (5 mM, 6 μL, 30 nmol) was added as an internal standard. In the case of testing free drug stability, no N-acetylcysteine solution was added and instead the amount of buffer added was increased an equivalent amount to compensate (288 μL total buffer). The vial was placed in a heating block at 37° C. and protected from direct light. 25 μL aliquots of the reaction mixture were removed at various time points and analyzed by LC-MS. LC-MS peaks were integrated within the Agilent LC-MS software and the areas of each peak were normalized to 1-napthalene acetic acid at 280 nm. Percent compound remaining is defined as the normalized peak area at a given time point divided by the normalized peak area at 0 hours×100%.

Cathepsin B = Cathepsin B (Homo sapiens, UniProt P07858); test: Release Kinetics Assay with Cathepsin B; format: biochemical; details: pH 5.0, 37° C.
Method: Release Kinetics Assay: In a 1.5 mL screw-top conical plastic vial, the desired compound as a solution in DMSO (5 mM, 6 μL, 30 nmol) was mixed with a solution of N-acetylcysteine in DMSO (10 mM, 6 μL, […], 2 equiv) to quench the maleimide. The mixture was diluted with pH 5.0 sodium acetate buffer containing 8 mM N-acetylcysteine (255 μL). 1-napthalene acetic acid in DMSO (5 mM, 6 μL, 30 nmol) was added as an internal standard. A 9.2 U/mL solution of Cathepsin B in pH 5.0 buffer was added. The vial was placed in a heating block at 37° C. and protected from direct light. 25 μL aliquots of the reaction mixture were removed at various time points and analyzed by LC-MS. LC-MS peaks were integrated within the Agilent LC-MS software and the areas of each peak were normalized to 1-napthalene acetic acid at 280 nm. Percent drug-linker remaining is defined as the normalized peak area at a given time point divided by the normalized peak area at 0 hours×100%.

tumor = details: cited from earlier work
gram-positive = details: cited from earlier work
H460 cells = test: Cell proliferation assay (resazurin, CellTiter-Blue), H460; format: cell-based; details: for IC50: Homo sapiens, NCI-H460, 48 h, 2 days incubation, determined in triplicate; for cellular toxicity against H460 cells relative to the parent epoxide: relative to parent epoxide 1
Method: (§1) Cell Culture: Cell line NCI-H460, was purchased from American Type Culture Collection (ATCC). H460 cells were maintained in RPMI-1640 medium and HT-29 cells were maintained in McCoy's 5A medium, supplemented with 10% fetal bovine serum (Life Technologies, UK).
(§2) Cell Proliferation Assay: Cells were plated in black-walled 96-well plates (3000-4000 cells per well). Stock solutions of each compound were diluted serially and the resulting solutions were administrated to cells to achieve final concentrations of 1.1 nM to 2.5 μM in 100 μL total volume. After incubating at 37° C. (5% CO2) for 2 days (H460), 20 μL of resazurin solution (Promega CellTiter-Blue® Cell Viability Assay) was added to each well. After incubating at 37° C. for 4.0 h, the fluorescence (560 nm excitation/590 nm emission) was recorded using a microplate reader (SpectraMax i3) as a measure of viable cells. IC50 values, determined in triplicate, were calculated using a four-parameter logistic equation.

HT-29 (HER2−) = test: Cell proliferation assay, HT-29; format: cell-based; details: Homo sapiens
Method: as §1, §2

SK-BR-3 (HER2+) = test: Cell proliferation assay, SK-BR-3; format: cell-based; details: Homo sapiens
Method: as §2

NCI-N87 (HER2+) = test: Cell proliferation assay, NCI-N87; format: cell-based; details: Homo sapiens
LXFL 529L = details: lung cancer cell line; cited from earlier work
H-460 = details: lung cancer cell line; cited from earlier work
MCF-7 = details: mammary cancer cell line; cited from earlier work
SF-268 = details: CNS cancer cell line; cited from earlier work
[3] = tested on: self-complementary duplex DNA oligonucleotide d(AATTACGTAATT); test: DNA alkylation of duplex oligonucleotide, gel electrophoresis and LC-MS; format: biochemical
Excerpt: In developing the compounds described herein, it was anticipated that reversible opening of the epoxide with a latent leaving group would reduce the reactivity of the warhead while attached to the antibody but would allow for reformation of the epoxide under appropriate conditions. After exploration of a variety of possible epoxide adducts using a potent analog (1, Me-ddx), it was discovered that halohydrin FSTs were not only readily synthesized under Lewis- or Brønsted-acid catalysis, but also reverted to the epoxide cleanly in pH 7.4 cell growth media at 37° C. (Scheme 7). […] The DNA-alkylating capability of the bromohydrin FST 3 in comparison to a set of FST analogs of varying potency by incubation with a self-complementary duplex DNA oligonucleotide d([…]) for 4 h at 23° C. then analysis by gel electrophoresis and LC-MS was investigated.

CNCCCC(=O)O[C@]1(CBr)C2(C(OC)OC)OC3c4c(C)cc5c(OC)c6c(c(O)c5c4O[C@]1(OC)C3O2)C(=O)CCC6 (stereo partly shown) [compound 13]
liberation of the bromohydrin through ester spacer cyclization ([1]; pH 7.4 or 5.0, extended incubation at 37° C. or 50° C.): failed to liberate the bromohydrin

COc1c2c(c(O)c3c4c(c(C)cc13)C1OC3(C(OC)OC)OC1[C@@](OC)(O4)[C@]3(CBr)OCN(CCS(C)(=O)=O)C(=O)OCc1ccc(NC(=O)[C@H](C)NC(=O)[C@@H](NC(=O)CCCCCN3C(=O)C=CC3=O)C(C)C)cc1)C(=O)CCC2 (stereo partly shown) [compound 19]
stability of drug-linker quenched with N-acetyl cysteine ([2]; 37° C., pH 7.4 buffer): stable for days | payload release upon exposure to Cathepsin B (Cathepsin B): excellent release kinetics; also recorded: rapidly liberated FST-bromohydrin payload 3

COc1c2c(c(O)c3c4c(c(C)cc13)C1OC3(C(OC)OC)OC1C(O[C@H]1C[C@@H](O)[C@@](O)(C(C)=O)[C@H](C)O1)(O4)C3(O)CO)C(=O)C(O)CC2O[C@H]1C[C@@](C)(O)[C@H](OC(C)=O)[C@H](C)O1 (stereo partly shown) [Trioxacarcin B]
anti-tumor activity in murine models (tumor): anti-tumor activity | gram-positive antibiotic activity (gram-positive): gram-positive antibiotic activity

COCCOCCOCCOCCOCCOCCOCCC(=O)NCCCC[C@H](NC(=O)CCOCCOCCOCCOCCN1C(=O)C=CC1=O)C(=O)N[C@H](C(=O)N[C@@H](C)C(=O)Nc1ccc(COC(=O)N(CCS(C)(=O)=O)CO[C@]2(CBr)C3(C(OC)OC)OC4c5c(C)cc6c(OC)c7c(c(O)c6c5O[C@]2(OC)C4O3)C(=O)CCC7)cc1)C(C)C (stereo partly shown) [compound 27]
stability of drug-linker at pH 5.0 and 7.4 ([2]; 37° C., pH 5.0 and pH 7.4): exceptionally stable | free drug released ([2]; after 1 week at pH 7.4, 37° C.): no detectable free drug released | payload release upon exposure to Cathepsin B (Cathepsin B): rapidly releases payload

COc1c2c(c(O)c3c4c(c(C)cc13)C1OC3(C(OC)OC)OC1C(OC1CC(O)C(O)(C(C)O)C(C)O1)(O4)C31CO1)C(=O)C(O)CC2OC1COC(C)(OC(C)=O)C(C)(O)C1 (stereo not shown) [Trioxacarcin C]
anti-tumor activity in murine models (tumor): anti-tumor activity | gram-positive antibiotic activity (gram-positive): gram-positive antibiotic activity

COc1c2c(c(O)c3c4c(c(C)cc13)C1OC3(C(OC)OC)OC1[C@@](OC)(O4)[C@@]3(O)CI)C(=O)CCC2 (stereo partly shown) [compound 4]
IC50 (H460 cells; H460 cells): 4 nM | cellular toxicity against H460 cells relative to the parent epoxide (H460 cells): no loss in cellular toxicity | IC50 (HT-29 (HER2−)): 7 nM | IC50 (SK-BR-3 (HER2+)): 4 nM | IC50 (NCI-N87 (HER2+)): 1 nM

COc1c2c(c(O)c3c4c(c(C)cc13)[C@@H]1O[C@@]3(C(OC)OC)O[C@@H]1[C@@](O[C@H]1C[C@@H](O)[C@@](O)(C(C)=O)[C@H](C)O1)(O4)[C@@]31CO1)C(=O)[C@@H](O)C[C@@H]2O[C@H]1C[C@@](C)(O)[C@H](OC(C)=O)[C@H](C)O1 [Trioxacarcin A]
IC70 LXFL 529L (LXFL 529L): subnanmolar | IC70 H-460 (H-460): subnanmolar | IC70 MCF-7 (MCF-7): subnanmolar | IC70 SF-268 (SF-268): subnanmolar | anti-tumor activity in murine models (tumor): anti-tumor activity | gram-positive antibiotic activity (gram-positive): gram-positive antibiotic activity

CNCCNC(=O)O[C@]1(CBr)C2(C(OC)OC)OC3c4c(C)cc5c(OC)c6c(c(O)c5c4O[C@]1(OC)C3O2)C(=O)CCC6 (stereo partly shown) [compound 9]
liberation of bromohydrin 3 through diamine spacer cyclization ([1]; 37° C., pH 7.4 or 5.0 buffer): no liberation of bromohydrin was observed

COc1c2c(c(O)c3c4c(c(C)cc13)C1OC3(C(OC)OC)OC1[C@@](OC)(O4)[C@@]3(O)CBr)C(=O)CCC2 (stereo partly shown) [compound 3]
IC50 (H460 cells; H460 cells): 2 nM | cellular toxicity against H460 cells relative to the parent epoxide (H460 cells): no loss in cellular toxicity | reversion to the epoxide during DNA incubation ([3]; 4 h at 23° C.): did not revert to the epoxide | DNA alkylation ([3]; incubation with d(AATTACGTAATT) for 4 h at 23° C.): did not alkylate DNA

COc1c2c(c(O)c3c4c(c(C)cc13)C1OC3(C(OC)OC)OC1[C@@](OC)(O4)[C@@]3(O)CCl)C(=O)CCC2 (stereo partly shown) [compound 2]
potency relative to the bromohydrin (H460 cells; H460 cells, relative to bromohydrin 3): an order of magnitude less potent | IC50 (H460 cells; H460 cells): 21 nM
